Reference: patent US20210196673A1 (priority 2018, published 2021)
Values after ≈ are worked out from the molar mass of the structure shown. Read-outs that look alike come from different tables or passages of the source.

How the values were obtained:
[1] = biological target: SARS-CoV 3C-like protease (3CLPro) (Severe acute respiratory syndrome coronavirus, UniProt P0C6X7); conditions: cited from earlier work
SARS-CoV-2 [2] = test: Primary CPE assay in Vero cells (antiviral)
influenza virus = conditions: cited from earlier work
[3] = biological target: transmembrane protease serine 2 (TMPRSS2) (Homo sapiens, UniProt O15393); conditions: in vitro study; cited from earlier work
[4] = Stability of powder and liquid forms; assay type: physicochemical; conditions: for stability of powder form on storage: 5° C.
SARS-CoV-2 [5] = test: Secondary VYR (virus yield reduction) assay in Caco-2 cells; assay type: cell-based
Description: The secondary VYR assay in Caco-2 cells: Near-confluent cell culture monolayers of Caco-2 cells were prepared in 96-well disposable microplates the day before testing. Cells were maintained in MEM supplemented with 10% FBS. The same medium was used for antiviral assays and FBS was reduced to 2%, supplemented with 50-μg/ml gentamicin. EGCG was dissolved in serum-free MEM in a series of 2×dilutions from 100 μg/ml to 0.78 μg/ml. The EGCG diliutions were mixed and incubated with SARS-CoV-2 at 200 CCID50 (50% cell culture infectious dose) in 0.1 ml volume for 1 h prior to adding to the cell culture for 1 h absorption. Following absorption, the unabsorbed SARS-CoV-2 along with medium/EGCG was removed and fresh MEM was added to the cell culture for viral yield detection in comparison to untreated infection control. Five microwells were used per dilution: three for infected cultures and two for uninfected toxicity cultures. Controls for the experiment consist of six microwells that were infected and not treated (virus controls) and six that were untreated and uninfected (cell controls) on every plate. Medium devoid of virus was placed in toxicity control wells and cell control wells. Plates were incubated at 37° C. with 5% CO2 for 72 hours. A sample of supernatant was taken from each infected well (three replicate wells were pooled) and tested immediately. To evaluate toxicity, the plates were stained with 0.011% neutral red dye for approximately two hours at 37° C. in a 5% CO2 incubator. The neutral red medium was removed by complete aspiration, and the cells were rinsed 1× with phosphate buffered solution (PBS) to remove residual dye. The PBS is completely removed, and the incorporated neutral red was eluted with 50% Sorensen's citrate buffer/50% ethanol for at least 30 minutes. As larger the number of viable cells present in the wells, when the neutral red dye penetrated into the living cells, the more intense the red color appeared. The dye content in each well was quantified using a spectrophotometer at 540 nm wavelength. The dye content in each set of wells was converted to a percentage of dye present in untreated control wells using a Microsoft Excel computer-based spreadsheet and normalized based on the virus control. The 50% cytotoxic (CC50, cell-inhibitory) concentrations were then calculated by regression analysis.
The VYR test indicates how much EGCG inhibits virus entry and replication. Virus yielded in the presence of EGCG was titrated and compared to virus titers from the untreated virus controls. Titration of the viral samples (collected as described in the paragraph above) was performed by endpoint dilution (Reed-Muench method). Serial 1/10 dilutions of virus were made and plated into 4 replicate wells containing fresh cell monolayers of Vero 76 cells. Plates were then incubated, and cells were scored for the presence or absence of virus after distinct CPE was observed. The TCID50 values were calculated using the Reed-Muench method. The 90% (one log10) effective concentration (EC90) was calculated by regression analysis by plotting the log10 of the inhibitor concentration versus log10 of virus produced at each concentration. The quotient of CC50 divided by EC90 gave the selectivity index (SI) value. Compounds showing SI values ≥10 are considered active.

Vero cells = test: Primary CPE assay in Vero cells (cytotoxicity, CC50); assay type: cell-based
[6] = biological target: SARS-CoV nucleocapsid (N) protein (Severe acute respiratory syndrome coronavirus, UniProt P59595); conditions: cited from earlier work
H1N1 virus [7] = assay type: cell-based, influenza A virus
MDCK cells = test: Cell viability, MTT assay; assay type: cell-based; conditions: 1 hour incubation
Description: Cell Viability: This experiment tested if EC16 formulations were associated with cytotoxicity in MDCK cells. MDCK cells were cultured in a 96 well plate until confluent. MEM serum free medium, MEM medium with 10% carrier and 20% carrier (carrier controls), or MEM medium containing 0.1% EC16 and 10% or 20% carrier was added to the wells followed by a 1 hour incubation at 35° C. with 5% CO2. The medium was then changed to 200 μl fresh MEM serum free medium with 0.2 μg/ml trypsin in each well and incubated overnight under the same condition. The plate was removed from the cell culture incubator and an MTT assay was performed according to a method described previously (Yamamoto, T., et al., Anticancer Research, 24:3065-3073 (2004)).

H1N1 virus [8] = tested on: H1N1 virus
H1N1 virus [9] = assay type: cell-based, influenza A virus; remark: listed apart in the source
H1N1 virus [10] = tested on: H1N1 virus; remark: listed apart in the source
H1N1 virus [11] = assay type: cell-based, influenza A virus; remark: listed apart in the source
[12] = EGCG 50 μg/ml (0.005%), Caco-2 cells
[13] = EGCG 100 μg/ml (0.01%), Caco-2 cells

Chain of transmembrane protease serine 2 (TMPRSS2) (O15393 whole entry): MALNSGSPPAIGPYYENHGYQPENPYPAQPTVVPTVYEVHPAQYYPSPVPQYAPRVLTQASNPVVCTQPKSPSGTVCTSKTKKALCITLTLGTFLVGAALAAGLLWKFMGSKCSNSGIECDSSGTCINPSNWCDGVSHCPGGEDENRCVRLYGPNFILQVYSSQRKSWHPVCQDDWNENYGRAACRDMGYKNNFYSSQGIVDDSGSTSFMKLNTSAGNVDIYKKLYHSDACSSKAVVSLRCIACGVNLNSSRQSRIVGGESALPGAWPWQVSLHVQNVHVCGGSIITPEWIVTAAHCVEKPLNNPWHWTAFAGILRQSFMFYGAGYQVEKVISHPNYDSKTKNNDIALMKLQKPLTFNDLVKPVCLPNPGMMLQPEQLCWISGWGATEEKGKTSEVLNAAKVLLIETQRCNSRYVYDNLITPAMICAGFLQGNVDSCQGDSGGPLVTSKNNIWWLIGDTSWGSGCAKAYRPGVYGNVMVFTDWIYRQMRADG
Chain of SARS-CoV nucleocapsid (N) protein (P59595 whole entry, looked up): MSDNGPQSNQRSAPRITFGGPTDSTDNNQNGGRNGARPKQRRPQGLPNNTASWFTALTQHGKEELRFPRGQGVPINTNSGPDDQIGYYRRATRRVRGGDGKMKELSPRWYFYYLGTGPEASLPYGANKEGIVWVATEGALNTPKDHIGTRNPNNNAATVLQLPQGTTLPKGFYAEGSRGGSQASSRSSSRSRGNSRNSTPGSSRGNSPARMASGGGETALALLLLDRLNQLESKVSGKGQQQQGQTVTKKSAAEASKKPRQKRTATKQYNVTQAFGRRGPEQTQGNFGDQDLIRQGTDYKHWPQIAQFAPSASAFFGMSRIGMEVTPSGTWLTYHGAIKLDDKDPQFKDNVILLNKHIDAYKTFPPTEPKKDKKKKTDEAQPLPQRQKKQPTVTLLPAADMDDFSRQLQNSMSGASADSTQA

O=C(O[C@@H]1Cc2c(O)cc(O)cc2O[C@@H]1c1cc(O)c(O)c(O)c1)c1cc(O)c(O)c(O)c1 [EGCG, (−)-epigallocatechin-3-gallate]
inhibition of 3C^pro activity [1]: 80% | inhibition of SARS-CoV 3C-like protease [1]: significantly inhibited | CC50 (cytotoxicity) (Caco-2 cells; Caco-2 cells, neutral red, value of b285): > 100 µg/mL | CC50 (Caco-2 cells; Neutral Red (Toxicity) assay, value of b289): > 100 µg/mL | EC50, inhibition of CPE (NR) (SARS-CoV-2 [2]; neutral red (NR) readout): 0.27 µg/mL | EC50, inhibition of CPE (VIS) (SARS-CoV-2 [2]; visual (VIS) readout): 0.23 µg/mL | effect of direct contact with influenza virus (influenza virus; direct contact of EGCG with virus, cell culture): inactivation of viral infectivity | anti-viral activity after pre-incubation of cells (influenza virus; pre-incubation of cells with EGCG, no contact with the virus): does not show anti-viral activity | inhibition of TMPRSS2 [3]: inhibited TMPRSS2 | stability in aqueous solution ([4]; aqueous solution): not stable | stability in dry powder form [4]: stable | stability of powder form on storage [4]: stable at 5 °C for two years | concentration that inhibited 90% of viral yield (EC90) (SARS-CoV-2 [5]; Caco-2 cells, value of b285): 28 µg/mL | reduction in virus titer (SARS-CoV-2 [5]; [12]): 1.8 log 10 | reduction of viral yield (SARS-CoV-2 [5]; [12]): 98.41% | reduction in virus titer (SARS-CoV-2 [5]; [13]): > 3.6 log 10 | reduction of viral yield (SARS-CoV-2 [5]; [13]): > 99.975% | antiviral activity (SARS-CoV-2 [5]; EGCG at or lower than 25 μg/ml (0.0025%), Caco-2 cells): the activity was not detected | Viral titer of EGCG treated TCID50 values (SARS-CoV-2 [5]; concentration 0.78 μg/ml): 5.3 lon10 | Viral titer of EGCG treated TCID50 values (SARS-CoV-2 [5]; concentration 1.56 μg/ml): 5.0 lon10 | Viral titer of EGCG treated TCID50 values (SARS-CoV-2 [5]; concentration 3.13 μg/ml): 5.0 lon10 | Viral titer of EGCG treated TCID50 values (SARS-CoV-2 [5]; concentration 6.25 μg/ml): 5.5 lon10 | Viral titer of EGCG treated TCID50 values (SARS-CoV-2 [5]; concentration 12.5 μg/ml): 5.3 lon10 | Viral titer of EGCG treated TCID50 values (SARS-CoV-2 [5]; concentration 25 μg/ml): 5.0 lon10 | Viral titer of EGCG treated TCID50 values (SARS-CoV-2 [5]; concentration 50 μg/ml): 3.5 lon10 | Viral titer of EGCG treated TCID50 values (SARS-CoV-2 [5]; concentration 100 μg/ml): <1.7 lon10 | SIgo (CC50/EC90) (SARS-CoV-2 [5]; selectivity index): > 23 | CC50 (NR) (Vero cells; neutral red (NR) readout): 2.3 µg/mL (≈ 5.02 µM) | CC50 (VIS) (Vero cells; visual (VIS) readout): 3.2 µg/mL (≈ 6.98 µM)

O=C(O[C@@H]1Cc2c(O)cc(O)cc2O[C@H]1c1cc(O)c(O)c(O)c1)c1cc(O)c(O)c(O)c1 [GCG, gallocatechin gallate]
inhibition of SARS-CoV 3C-like protease [1]: significantly inhibited | inhibitory effect against SARS-CoV nucleocapsid (N) protein [6]: remarkable inhibitory effect

(−)-epigallocatechin-3-gallate-palmitate [EC16]
viral TCID50, % of control (H1N1 virus [7]): 15.4%±15.2 | cell viability (MTT) versus MEM control (MDCK cells; 0.1% EC16 in 10% carrier): not statistically different from the MEM control | cell viability (MTT) versus MEM control (MDCK cells; 0.1% EC16 in 20% carrier): not statistically different from the MEM control | remaining viability (infectivity), mean (H1N1 virus [8]; 0.01% EC16 in 10% carrier, 10 minutes): 48.4%±46.4 | infectivity, mean % of control (H1N1 virus [8]; 0.01% EC16 in 20% carrier, 30 minutes): 7.6%±7.2 | infectivity, mean % of control (H1N1 virus [8]; 0.1% EC16 in 10% carrier, 10 minutes): 9.5%±1.4 | infectivity, mean % of control (H1N1 virus [8]; 0.1% EC16 in 20% carrier, 10 minutes): 12.1%±5.8 | infectivity, mean % of control (H1N1 virus [8]; 0.1% EC16 in 20% carrier, 30 minutes): 0.9%±0.7 | H1N1 infectivity, % of control (H1N1 virus [9]; 0.01% EC16 in 10% carrier, 1 minute contact, n=3): 20.5%±17.1 | H1N1 infectivity, % of control (H1N1 virus [9]; 0.01% EC16 in 20% carrier, separate experiments): 7.3%±9.2 | H1N1 infectivity, % of control (H1N1 virus [9]; 0.1% EC16 in 10% carrier, 1 minute contact, first three replicates): 6.1%±3.0 | H1N1 infectivity, % of control (H1N1 virus [9]; 0.1% EC16 in 10% carrier, additional three replicate experiments): 3.8%±1.5 | H1N1 infectivity, % of control (H1N1 virus [9]; 0.1% EC16 in 10% carrier, overall mean (n=6)): 5.0%±2.4 | H1N1 infectivity, % of control (H1N1 virus [9]; 0.1% EC16 in 20% carrier, 1 minute contact): 2.4%±1.1 | stability in dry powder form [4]: stable | stability in proper liquid formulations ([4]; liquid formulations): stable | stability of powder form on storage [4]: stable at 5 °C for two years | viral titer (viability), % of control (H1N1 virus [10]; 0.01% EC16 in 10% carrier, 1 hour pre-treatment, n=4): 100% | infectivity, % of control (H1N1 virus [10]; 0.01% EC16 in 20% carrier, 1 hour pre-treatment): 2.3%±0.9 | infectivity, % of control (H1N1 virus [10]; 0.1% EC16 in 10% carrier, 1 hour pre-treatment): 10.5%±3.6 | reduction in titer (H1N1 virus [10]; 0.1% EC16 in 20% carrier): 42 fold | infectivity, % of control (H1N1 virus [10]; 0.1% EC16 in 20% carrier, 1 hour pre-treatment, n=7): 2.4%±1.6 | viral titer in comparison to control (H1N1 virus [10]; EC16 0 to 0.1% in 2% DMSO instead of carrier): did not result in a statistically significant difference | cells protected from H1N1 infection (H1N1 virus [11]; 0.05% EC16, washed and 1 hour without EC16): 90% | block of H1N1 infection (H1N1 virus [11]; 0.1% EC16, 2 hours after first application, washed and 1 hour without EC16): almost completely blocked
